Values quoted from earlier work, collected in patent publication US12295916B2, “Process for making aqueous therapeutic particle having stable exterior water clustering with nanosized thickness” (priority 2019, dated 2025).

Conditions: given by injection

In the case of `CNC1(c2ccccc2Cl)CCCCC1=O` (centres unmarked) [Ketamine], the duration of effects is given as no more than 25 min and the “time to begin of effects” value is given as “five”.
